What is called viscosity is the internal friction of a fluid under shear. For orientation: mass density means mass per unit of volume.

The data set can be described thus: wn = mass fraction of the nth substance listed. As to conditions: 101 kPa, Liquid; for viscosity: Capillary tube (Ostwald / Ubbelohde) method.

Numbers after ± are expanded uncertainties.

On to `[K+].[K+].[O]=[Cr](=[O])([O-])[O][Cr](=[O])(=[O])[O-]` [potassium dichromate] + O, for which the viscosity was determined as 0.6465 ± 0.0055 mPa·s (313.15 K, w1 = 0.0478); 0.6805 ± 0.0058 mPa·s (313.15 K, w1 = 0.0906); 0.6914 ± 0.0059 mPa·s (319.15 K, w1 = 0.155); 0.6658 ± 0.0057 mPa·s (323.25 K, w1 = 0.172); 0.6307 ± 0.0054 mPa·s (333.35 K, w1 = 0.214). Besides, the mass density is 1006.5 ± 1.1 kg/m3 (313.15 K, w1 = 0.02); 1026.8 ± 1.2 kg/m3 (313.15 K, w1 = 0.05); 1166.5 ± 1.4 kg/m3 (319.15 K, w1 = 0.155); 1184.2 ± 1.5 kg/m3 (323.25 K, w1 = 0.172); 997 ± 1.3 kg/m3 (333.15 K, w1 = 0.02); 1016.4 ± 1.3 kg/m3 (333.15 K, w1 = 0.05). The mass density (333.32 K, w1 = 0.214) is 1232.1 ± 1.6 kg/m3.
As to `[K+].[K+].[O]=[Cr](=[O])([O-])[O-]` [potassium chromate(VI)] + O, the viscosity was 0.9285 ± 0.0077 mPa·s (298.15 K, w1 = 0.0931) and 0.7309 ± 0.0062 mPa·s (313.15 K, w1 = 0.0931). Further, the mass density (298.15 K, w1 = 0.049) is reported as 1034.6 ± 1 kg/m3; the mass density (298.15 K, w1 = 0.0538) was determined as 1038.3 ± 1 kg/m3; the mass density (298.15 K, w1 = 0.0653) worked out at 1046.8 ± 1 kg/m3.
